Some results are limits rather than exact numbers.

Der p 1, sequence (P08176 99-320): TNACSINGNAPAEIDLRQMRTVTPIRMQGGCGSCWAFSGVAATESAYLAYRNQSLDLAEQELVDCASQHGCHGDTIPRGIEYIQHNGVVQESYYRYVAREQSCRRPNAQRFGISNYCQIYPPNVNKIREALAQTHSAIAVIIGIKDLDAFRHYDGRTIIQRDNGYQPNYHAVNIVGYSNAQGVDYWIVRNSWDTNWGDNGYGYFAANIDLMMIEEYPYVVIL

The first test concerns the target Der p 1 (Dermatophagoides pteronyssinus (European house dust mite), UniProt P08176). Description: Der p 1 enzyme activity assay (FRET fluorogenic substrate). Format: biochemical. Conditions: Der p 1 IC50. The procedure: The fluorogenic substrate used for measuring Der p 1 proteolytic activity was 2-aminobenzoylvalylalanylnorleucylseryl-(3-nitro)tyrosinyl aspartamide.
Test compounds were dissolved in dry DMSO and maintained at 4° C. as stock solutions until being diluted for use in screening assays. Final concentration of DMSO in all enzymatic assays was 0.5% v/v.
Reaction mixtures were assembled in a 96-well plate format (Perkin Elmer Optiplate 96F, Perkin Elmer LAS, Seer Green, Buckinghamshire, UK) using a Perkin Elmer MultiPROBE II Plus HTS EX robot with Gripper attachment. […] Dithiothreitol (DTT, 10 μL/well, 1 mM final concentration) was then added together with 10 μL of Der p 1 dissolved at 2.5 μg/mL in reaction buffer supplemented with 1 mM DTT. […] The plate was immediately transferred to a fluorescence plate reader (Perkin Elmer Fusion Alpha-FP or Perkin Elmer Envision) equipped with a temperature-controlled carrier set at 30° C. and the reaction followed by excitation/emission at 330/420 nm.
Inhibitory activity was analysed from progress curves of reactions in the presence of a range of inhibitor concentrations.
Initial velocity in each well was converted to fractional activity by Equation 1: Fractional activity=(Initial rate at inhibitor concentration[X]/Initial rate at inhibitor concentration zero)*100 Equation 1:
Then, IC50 was determined by fitting the data of fractional activity and inhibitor concentration to a 4-parameter logistic curve, using Equation 2: V=Vmin+[Vmax−Vmin]/[1+(X/IC50)Hillslope] […] Biological Data—Der p 1 Enzyme Assay
The molecule `CC(C)[C@H](NC(=O)[C@H](C)NC(=O)[C@H](Cc1ccccc1)NC(=O)c1ccccc1)C(=O)C(=O)NCC(=O)N1CCCCC1` [PVA-067] had an IC50 below 20 nM. `CC(C)[C@H](NC(=O)[C@H](C)NC(=O)[C@H](Cc1ccccc1)NC(=O)c1ccccc1)C(=O)C(=O)NCC(=O)N1CCOCC1` [PVA-068] gave an IC50 below 20 nM. On the same count and under the same terms, then `CC(C)[C@@H](NC(=O)[C@H](C)NC(=O)[C@@H](NC(=O)c1ccccc1)C(C)(C)C)C(=O)C(=O)NC1CCCCC1` [PVA-085], with below 200 nM. Same read-out and setting: the value for `CC(C)[C@@H](NC(=O)[C@H](C)NC(=O)[C@@H](NC(=O)c1ccncc1)C(C)(C)C)C(=O)C(=O)NC1CCCCC1` [PVA-086] was below 200 nM. The molecule `CC(C)[C@H](NC(=O)[C@H](C)NC(=O)[C@H](Cc1ccccc1)NC(=O)c1ccccc1)C(=O)C(=O)NCC(=O)N1CCN(C(C)C)CC1` [PVA-092] showed a 50% inhibitory concentration (IC50) below 20 nM. On the same count and under the same terms, the value for `CC(C)[C@H](NC(=O)[C@H](C)NC(=O)[C@H](Cc1ccccc1)NC(=O)c1ccccc1)C(=O)C(=O)N[C@@H](C)C(=O)N1CCN(C)CC1` [PVA-094] was below 20 nM.

Staying with this test, now noted: threshold stated in text; read-out: Der p 1 IC50.
For the molecule `CC(C)[C@H](NC(=O)[C@H](C)NC(=O)[C@@H](NC(=O)c1cnccn1)C(C)(C)C)C(=O)C(=O)NCc1ccccc1` [PVA-058], the IC50 was below 200 nM.

`CC(=O)Nc1ccc(C(=O)N[C@@H](Cc2ccccc2)C(=O)N[C@@H](C)C(=O)N[C@H](C(=O)C(=O)NCc2ccccc2)C(C)C)cn1` [PVA-059]: the IC50 was below 200 nM. Still for that read-out and setting: the value for `CC(=O)Nc1cc(C(=O)N[C@@H](Cc2ccccc2)C(=O)N[C@@H](C)C(=O)N[C@H](C(=O)C(=O)NCc2ccccc2)C(C)C)ccn1` [PVA-060] was below 200 nM; that for `CC(=O)Nc1ccc(C(=O)N[C@H](C(=O)N[C@@H](C)C(=O)N[C@H](C(=O)C(=O)NC2CCCCC2)C(C)C)C(C)(C)C)cn1` [PVA-061] was below 200 nM; that for `CC(=O)Nc1cc(C(=O)N[C@H](C(=O)N[C@@H](C)C(=O)N[C@H](C(=O)C(=O)NC2CCCCC2)C(C)C)C(C)(C)C)ccn1` [PVA-062] was below 200 nM.

Regarding `CC(=O)Nc1ccc(C(=O)N[C@H](C(=O)N[C@@H](C)C(=O)N[C@H](C(=O)C(=O)NCc2ccccc2)C(C)C)C(C)(C)C)cn1` [PVA-063], the IC50 was below 200 nM. The same measure, in the same setting: the value for `CC(=O)Nc1cc(C(=O)N[C@H](C(=O)N[C@@H](C)C(=O)N[C@H](C(=O)C(=O)NCc2ccccc2)C(C)C)C(C)(C)C)ccn1` [PVA-064] was below 200 nM. For the molecule `CC(C)[C@H](NC(=O)[C@H](C)NC(=O)[C@H](Cc1ccccc1)NC(=O)c1cccc(OCCN2CCCC2)c1)C(=O)C(=O)NC1CCCCC1` [PVA-065], the IC50 was below 200 nM. As to `CC(C)[C@H](NC(=O)[C@H](C)NC(=O)[C@@H](NC(=O)c1ccccc1)C12C[C@H]3C[C@@H](C1)C[C@@H](C2)C3)C(=O)C(=O)NCc1ccccc1` [PVA-066], the IC50 is below 20 nM. The same measure, in the same setting: then `CC(C)[C@H](NC(=O)[C@H](C)NC(=O)[C@H](Cc1ccccc1)NC(=O)c1ccnc(N2CCOCC2)c1)C(=O)C(=O)NC1CCCCC1` [PVA-069], with below 2000 nM; and `CC(C)[C@H](NC(=O)[C@H](C)NC(=O)[C@H](Cc1ccccc1)NC(=O)c1ccc(N2CCOCC2)nc1)C(=O)C(=O)NCc1ccccc1` [PVA-070], with below 2000 nM; and `CC(C)[C@H](NC(=O)[C@H](C)NC(=O)[C@@H](NC(=O)c1ccnc2ccccc12)C(C)(C)C)C(=O)C(=O)NC1CCCCC1` [PVA-071], with below 20 nM.

In the case of `CC(C)[C@H](NC(=O)[C@H](C)NC(=O)[C@@H](NC(=O)c1ccnc2ccccc12)C(C)(C)C)C(=O)C(=O)NCc1ccccc1` [PVA-072], the concentration for half-maximal inhibition (IC50) was below 20 nM. On the same count and under the same terms, the value for `CC(C)[C@H](NC(=O)[C@H](C)NC(=O)[C@@H](NC(=O)c1cncc2ccccc12)C(C)(C)C)C(=O)C(=O)NC1CCCCC1` [PVA-073] was below 20 nM; that for `CC(C)[C@H](NC(=O)[C@H](C)NC(=O)[C@@H](NC(=O)c1cncc2ccccc12)C(C)(C)C)C(=O)C(=O)NCc1ccccc1` [PVA-074] was below 20 nM.

With `CC(C)[C@H](NC(=O)[C@H](C)NC(=O)[C@@H](NC(=O)c1cccc(OCc2nccn2C)c1)C(C)(C)C)C(=O)C(=O)NC1CCCCC1` [PVA-075], the IC50 was below 200 nM. On the same count and under the same terms, then `CC(C)[C@H](NC(=O)[C@H](C)NC(=O)[C@@H](NC(=O)c1ccc(OCCN2CCCC2)cc1)C(C)(C)C)C(=O)C(=O)NC1CCCCC1` [PVA-076], with below 200 nM; and `CC(C)[C@H](NC(=O)[C@H](C)NC(=O)[C@@H](NC(=O)c1ccc(OCc2nccn2C)cc1)C(C)(C)C)C(=O)C(=O)NC1CCCCC1` [PVA-077], with below 200 nM; and `CC(C)[C@H](NC(=O)[C@H](C)NC(=O)[C@@H](NC(=O)c1ccccc1)C(C)(C)C)C(=O)C(=O)NCC(=O)N1CCCCC1` [PVA-078], with below 20 nM.

For `CC(C)[C@H](NC(=O)[C@H](C)NC(=O)[C@@H](NC(=O)c1ccccc1)C(C)(C)C)C(=O)C(=O)NCC(=O)N1CCOCC1` [PVA-079], the IC50 was below 20 nM. `COC(=O)c1cccc(CNC(=O)C(=O)[C@@H](NC(=O)[C@H](C)NC(=O)[C@H](Cc2ccccc2)NC(=O)c2ccccc2)C(C)C)c1` [PVA-080]: the IC50 was below 20 nM.

Take `CC(C)[C@H](NC(=O)[C@H](C)NC(=O)[C@H](Cc1ccccc1)NC(=O)c1ccccc1)C(=O)C(=O)NCc1cccc(C(=O)O)c1` [PVA-081]: the half-maximal inhibitory concentration (IC50) was below 200 nM. The same measure, in the same setting: the value for `CC(C)[C@H](NC(=O)[C@H](C)NC(=O)[C@@H](NC(=O)c1ccncn1)C(C)(C)C)C(=O)C(=O)NC1CCCCC1` [PVA-082] was below 200 nM; that for `CC(C)[C@H](NC(=O)[C@H](C)NC(=O)[C@H](Cc1ccccc1)NC(=O)c1ccccc1)C(=O)C(=O)NC1CCN(C)CC1` [PVA-083] was below 200 nM; that for `CC(C)[C@H](NC(=O)[C@H](C)NC(=O)[C@@H](NC(=O)c1ccc(=O)[nH]c1)C(C)(C)C)C(=O)C(=O)NC1CCCCC1` [PVA-084] was below 200 nM. With `CCC[C@H](NC(=O)[C@H](Cc1ccccc1)NC(=O)c1ccccc1)C(=O)N[C@H](C(=O)C(=O)NC1CCCCC1)C(C)C` [PVA-088], the IC50 is below 200 nM. Same read-out and setting: then `CC(C)[C@H](NC(=O)[C@H](C)NC(=O)[C@@H](NC(=O)C1CCN(C)CC1)C(C)(C)C)C(=O)C(=O)NC1CCCCC1` [PVA-089], with below 200 nM; and `CC(C)[C@H](NC(=O)[C@H](C)NC(=O)C(C)(C)NC(=O)c1ccccc1)C(=O)C(=O)NC1CCCCC1` [PVA-090], with below 2000 nM; and `CC(C)[C@H](NC(=O)[C@H](C)NC(=O)C1(NC(=O)c2ccccc2)CCCCC1)C(=O)C(=O)NC1CCCCC1` [PVA-091], with below 200 nM. Same read-out and setting: the value for `CC(C)[C@H](NC(=O)[C@H](C)NC(=O)[C@H](Cc1ccccc1)NC(=O)c1ccccc1)C(=O)C(=O)NCC(=O)N1CCC(N(C)C)CC1` [PVA-093] was below 20 nM; that for `CC(C)[C@H](NC(=O)[C@H](C)NC(=O)[C@H](Cc1ccccc1)NC(=O)c1cccc2ccccc12)C(=O)C(=O)NCC(=O)N1CCN(C)CC1` [PVA-095] was below 200 nM; that for `CC(C)[C@H](NC(=O)[C@H](C)NC(=O)[C@H](Cc1ccccc1)NC(=O)c1ccccc1)C(=O)C(=O)NCCN1CCN(C)CC1` [PVA-098] was below 200 nM. Same read-out and setting: the value for `CC(C)[C@H](NC(=O)[C@H](C)NC(=O)[C@H](Cc1ccccc1)NC(=O)c1ccncc1)C(=O)C(=O)NCc1ccccc1` [PVA-099] was below 20 nM; that for `CC(C)[C@H](NC(=O)[C@H](C)NC(=O)[C@@H]1Cc2ccccc2CN1C(=O)c1ccccc1)C(=O)C(=O)NC1CCCCC1` [PVA-100] was below 200 nM.

Consider `CC(C)[C@H](NC(=O)[C@H](C)NC(=O)C1CCCN1C(=O)c1ccccc1)C(=O)C(=O)NC1CCCCC1` (stereo partly shown) [PVA-101], for which the IC50 is below 200 nM. On the same count and under the same terms, the value for `C[C@H](NC(=O)[C@H](Cc1ccccc1)NC(=O)c1ccccc1)C(=O)NCC(=O)C(=O)NCc1ccccc1` [PVA-102] was below 200 nM; that for `CC(C)[C@H](NC(=O)[C@H](C)NC(=O)[C@H](Cc1ccccc1)NC(=O)c1ccccc1)C(=O)C(=O)NC1Cc2ccccc2C1` [PVA-103] was below 200 nM; that for `CC(C)[C@H](NC(=O)[C@H](C)NC(=O)[C@H](Cc1ccccc1)N1Cc2ccccc2C1=O)C(=O)C(=O)NC1CCCCC1` [PVA-104] was below 20 nM.

As for `CC(C)[C@H](NC(=O)[C@H](C)NC(=O)[C@@H](NC(=O)c1ccccc1)C(C)(C)C)C(=O)C(=O)NCC(=O)N1CCC(N(C)C)C1` (stereo partly shown) [PVA-105], the half-maximal inhibitory concentration (IC50) is below 20 nM. Still for that read-out and setting: then `CC(C)[C@H](NC(=O)[C@H](C)NC(=O)[C@@H](NC(=O)c1ccccc1Oc1ccccc1)C(C)(C)C)C(=O)C(=O)NCc1ccccc1` [PVA-106], with below 200 nM. Same read-out and setting: the value for `Cc1cc(C(=O)N[C@H](C(=O)N[C@@H](C)C(=O)N[C@H](C(=O)C(=O)NCc2ccccc2)C(C)C)C(C)(C)C)[nH]n1` [PVA-107] was below 200 nM; that for `CC(C)[C@H](NC(=O)[C@H](C)NC(=O)[C@@H](NC(=O)c1ccccc1S(C)(=O)=O)C(C)(C)C)C(=O)C(=O)NCc1ccccc1` [PVA-108] was below 20 nM; that for `CC(C)[C@H](NC(=O)[C@H](C)NC(=O)[C@@H](NC(=O)c1ccccc1)C(C)(C)C)C(=O)C(=O)N[C@@H]1CCc2ccccc21` [PVA-109] was below 200 nM.

Usually IC50 stands for the concentration at which inhibition is half-maximal.

For the origin of these results see patent publication US8541363B2, “Pyruvamide compounds as inhibitors of dust mite group 1 peptidase allergen and their use” (St George's Hosptial Medical School, priority 2010, dated 2013).
